Source: patent US12350364B2, “Lipid body compositions, products made therefrom, methods of making same, and methods of use” (Xylome Corporation, priority 2019, dated 2025)
One block for each compound: values may come before it.

How the values were obtained:
Type in all cases: physicochemical
[1] = Drug loading into lipid-body composition and release into PBS (UV-VIS / HPLC); details: for drug released, concentration: 6-fold dilution
[2] = Lidocaine binding and partitioning into lipid bodies (UV 260 nm after 0.2 μm filtration)
From the text: Lipid bodies were cleared of excipients and antimicrobial preservative by undergoing a 1:10 wash in ethanol followed by rehydration in distilled water.

[3] = Uptake of hydrophobic dyes by lipid bodies (mixing, centrifugation/flotation); details: for uptake of hydrophobic model compound into lipid bodies: about 50% lipid bodies, mixed about 10 minutes, centrifuged
Protocol: In this example, fermentations of different engineered hyper lipogenic Lipomyces starkeyi were used to create lipid bodies. Using the engineered hyper-lipogenic strain XYL-403, compositions of lipid bodies were prepared with a diameter from 6.9+/−1.4 microns when measured under a microscope using a calibrated Petroff Hauser counter. Following the initial preparation of lipid bodies, the lipid bodies were fused using high levels of salt at 1M NaCl, solvents such as ethanol at 20% (v/v) in water, and application of shear force using centrifugation (FIG. 12A). Homogenization, filtration, or chemical treatments can be used as alternatives to or in additional centrifugation to induce shear force. Thus, compositions utilizing even larger lipid bodies (e.g., between 12 to 50 μm) can be developed using physically modified and merged lipid bodies. The advantages of larger lipid bodies can be extended using high total volumes of drug carrying capacity.
This example opens the possibility of even higher volumetric carrying capacity of lipid-body compositions of the invention when expanded to the upper limit of known diameter.
In this example, lipid bodies at about 50% concentration in base composition of example 1A were subjected to the addition of concentrated Nile red, which had been solubilized in DMSO and used in this example as a surrogate for a hydrophobic compound or hydrophobic drug. The lipid-body composition was mixed with Nile red for 10 minutes and centrifuged. After centrifugation, the lipid bodies separate by flotation and all of the Nile red entered into the lipid bodies. The lipid bodies remain hydrophilic on the exterior of the lipid body spheres and continue to feel aqueous.
In another version of this example, lipid bodies at approximately 50% by dry weight were mixed with a second hydrophobic model drug compound, Sudan black. […] Similar to the Nile red results, Sudan black is shown to be taken up by lipid bodies (FIG. 13B).

[4] = Example 19: dry powder loading plus 33 μL PBS, UV 350 nm
[5] = 100 μL of 5 mg/mL stock per 1 g lipid bodies, 300 mg in 1 mL PBS, 15 min, room temperature, UV 343 nm

SMILES: COc1cc2c(c(OC)c1OC)-c1ccc(OC)c(=O)cc1[C@@H](NC(C)=O)CC2 [colchicine]
colchicine released ([1]; Example 15: 55% aqueous/45% drug-containing lipid-body composition, 100 μL of 2 mg/mL stock per 1 g lipid body, 300 mg in 1 mL PBS, 15 min, room temperature, UV 350 nm): 5.9 µg/mL
drug release ([1]; Example 15: 55% aqueous/45% drug-containing lipid-body composition, 300 mg in 1 mL PBS, 15 min, room temperature, UV 350 nm): 9.8%
colchicine released ([1]; Example 16: 62% liquid/38% composition, HPLC): 41%
drug released ([1]; Example 16: 62% liquid/38% composition, HPLC (350 nm, 2.9 minutes)): 61.5 µg/mL
released, % of the total colchicine ([1]; Example 16: 62% liquid/38% composition, UV 350 nm): 34.5%
drug released ([1]; Example 16: 62% liquid/38% drug-containing lipid-body composition, 5 mg/mL stock, 200 μL PBS added, 1 mL PBS, room temperature, UV 350 nm): 51.8 µg/mL
released, % of the total compound loaded ([1]; Example 17: 67% liquid/33% composition, UV 350 nm): 15.1%
colchicine released ([1]; Example 17: 67% liquid/33% drug-containing lipid-body composition, 178 μL PBS added, UV 350 nm): 22.6 µg/mL
colchicine released ([1]; Example 18: 30 mg dry powder mixed into 1 g lipid bodies, 300 mg in 2 mL PBS, 15 min, room temperature, UV 350 nm): 3,390 μg/mL
released, % of the total colchicine present ([1]; Example 18: dry powder loading, 50% lipid-body composition, UV 350 nm): 37.6%
colchicine released [1, 4]: 4000 µg/mL
released, % of the total colchicine [1, 4]: 44%

SMILES: CCN(CC)CC(=O)Nc1c(C)cccc1C [Lidocaine]
Lidocaine in Aqueous Cream Fraction ([2]; 500 μg Lidocaine in Salt (1M NaCl)): 72%
Lidocaine in Aqueous Cream Fraction ([2]; 500 μg Lidocaine in Water): 83%
Lidocaine in Aqueous Cream Fraction ([2]; Control: 500 μg Lidocaine without Lipid Bodies and Filtered): 100%

uptake of hydrophobic model compound into lipid bodies [3]: quantitatively complete
SMILES: CCN(CC)c1ccc2nc3c4ccccc4c(=O)cc-3oc2c1 [Nile red]

total release [1, 5]: 8.1%
drug released, concentration [1, 5]: 12.1 µg/mL
total release ([1]; Example 21, repeat dilution (1 to 3 then 1 to 2)): 8.1%
SMILES: CCN(CC)CCCC(C)Nc1ccnc2cc(Cl)ccc12 (stereo not drawn) [chloroquine]

taken up into the lipid bodies ([3]; merged very large lipid bodies (1M NaCl, 20% ethanol, centrifugation)): ~100%
SMILES: CC1(C)Nc2cccc3c(N=Nc4ccc(N=Nc5ccccc5)c5ccccc45)ccc(c23)N1 [Sudan black]
uptake of hydrophobic model compound into lipid bodies [3]: essentially all of the Sudan black loaded into the lipid bodies

Travoprost released ([1]; first procedure: 2 μL of 25 mg/mL per 1 g lipid bodies, 300 mg in 1 mL PBS, HPLC 210 nm): 50%
Travoprost release ([1]; second procedure: 250 μg evaporated concentrate per 1 g lipid bodies, 100 mg in 1 mL PBS, HPLC): 60.7%
SMILES: CC(C)OC(=O)CCC/C=C\C[C@@H]1[C@@H](/C=C/[C@@H](O)COc2cccc(C(F)(F)F)c2)[C@H](O)C[C@@H]1O [Travoprost]

Losartan released into 1 mL PBS, concentration ([1]; 100 μL of 5 mg/mL stock per 1 g lipid bodies, 300 mg in 1 mL PBS, HPLC 210 nm, 3.9 minutes): 54.4 µg/mL
total release ([1]; Losartan, 300 mg in 1 mL PBS, HPLC 210 nm): 36.3%
SMILES: CCCCc1nc(Cl)c(CO)n1Cc1ccc(-c2ccccc2-c2nn[nH]n2)cc1 [Losartan]

total release [1, 5]: 10.4%
drug released, concentration [1, 5]: 5.66 µg/mL
SMILES: CCN(CCO)CCCC(C)Nc1ccnc2cc(Cl)ccc12 (stereo not drawn) [hydroxychloroquine]
